According to ChEMBL document CHEMBL1201862, “PubChem BioAssay data set” (2004):
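1) Cells in 96-well plates. 2) Compound, 48 h, 5 concentrations. 3) Linear interpolation between surrounding doses. 4) Unreached endpoint = highest concentration. GI50 = concentration required for 50% inhibition of growth.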 The source made the active and inactive calls. Rule as the data show it: active = GI50 up to about 1.1 µM and inactive = higher.

How the values were obtained:
Test in all cases: growth of human tumour cells (NCI), 48 h
A498 = system: A498
SK-MEL-5 = system: SK-MEL-5
U-251 = system: U-251
MCF7 = system: MCF7
LOX IMVI = system: LOX IMVI
COLO 205 = system: COLO 205
SNB-75 = system: SNB-75
EKVX = system: EKVX
NCI-H23 = system: NCI-H23
Malme-3M = system: Malme-3M
NCI-H460 = system: NCI-H460
A549 = system: A549
SF-268 = system: SF-268
SF-539 = system: SF-539
SK-MEL-28 = system: SK-MEL-28
HOP-62 = system: HOP-62
NCI/ADR-RES = system: NCI/ADR-RES
M14 = system: M14
CCRF-CEM = system: CCRF-CEM
RXF 393 = system: RXF 393

Measured: GI50

COc1c(/C=C/C=O)cc2c(c1OC)OCO2
inactive: A498 1.21 µM | SK-MEL-5 21.1 µM | U-251 23.2 µM | MCF7 28 µM | LOX IMVI 24.5 µM | COLO 205 > 100 µM | SNB-75 > 100 µM | EKVX 55.3 µM | NCI-H23 30.4 µM | Malme-3M 20.7 µM | NCI-H460 14.7 µM | A549 > 100 µM | SF-268 41.1 µM | SF-539 35 µM | SK-MEL-28 > 100 µM | HOP-62 25.5 µM | NCI/ADR-RES 33.3 µM | M14 24.2 µM | CCRF-CEM 22.1 µM | RXF 393 > 100 µM

Nc1nc(Cl)c(N)c(NC23CC4CC(CC(C4)C2)C3)n1
inactive: A498 2.88 µM | SK-MEL-5 1.72 µM | U-251 1.66 µM | MCF7 1.68 µM | LOX IMVI 3.87 µM | COLO 205 1.58 µM | SNB-75 2.1 µM | EKVX 2.18 µM | NCI-H23 2.23 µM | Malme-3M 3.16 µM | NCI-H460 3.07 µM | A549 2.13 µM | SF-268 2.57 µM | SF-539 2.16 µM | SK-MEL-28 1.84 µM | HOP-62 1.87 µM | NCI/ADR-RES 2.43 µM | M14 1.36 µM | CCRF-CEM 1.62 µM | RXF 393 1.61 µM

Nc1ncn([C@H]2C[C@H](O)[C@@H](CO)O2)c(=O)n1 [DECITABINE]
inactive: A498 135 µM | SK-MEL-5 74.6 µM | U-251 102 µM | MCF7 74.8 µM | LOX IMVI 99.5 µM | COLO 205 37.7 µM | SNB-75 82.8 µM | EKVX 104 µM | NCI-H23 118 µM | Malme-3M 127 µM | NCI-H460 6.59 µM | A549 21.4 µM | SF-268 119 µM | SF-539 92 µM | SK-MEL-28 97.3 µM | HOP-62 111 µM | NCI/ADR-RES > 347 µM | M14 9.59 µM | CCRF-CEM 4.59 µM | RXF 393 136 µM

Cc1cc(NS(=O)(=O)c2ccc(Nc3c4ccccc4nc4ccc(C(=O)Nc5ccc(S(N)(=O)=O)cc5)cc34)cc2)no1
inactive: A498 > 100 µM | SK-MEL-5 > 100 µM | U-251 57.4 µM | MCF7 > 100 µM | LOX IMVI > 100 µM | COLO 205 > 100 µM | SNB-75 > 100 µM | EKVX > 100 µM | NCI-H23 > 100 µM | Malme-3M > 100 µM | NCI-H460 > 100 µM | A549 > 100 µM | SF-268 > 100 µM | SF-539 > 100 µM | SK-MEL-28 > 100 µM | HOP-62 > 100 µM | NCI/ADR-RES > 100 µM | M14 > 100 µM | CCRF-CEM > 100 µM | RXF 393 > 100 µM

COc1c2c(nc3ccccc13)-c1cc(C(CC(=O)OC(C)(C)C)C(=O)OC(C)C)c(CO)c(=O)n1C2 (stereo not given)
inactive: A498 57.3 µM | SK-MEL-5 43.5 µM | U-251 42.5 µM | MCF7 6.85 µM | LOX IMVI 32.4 µM | COLO 205 88.5 µM | SNB-75 > 93.8 µM | EKVX > 100 µM | NCI-H23 55.7 µM | Malme-3M > 100 µM | NCI-H460 10.4 µM | A549 52.8 µM | SF-268 > 62.8 µM | SF-539 36.9 µM | SK-MEL-28 > 73.8 µM | HOP-62 24.9 µM | NCI/ADR-RES 24.5 µM | M14 39 µM | CCRF-CEM 4.48 µM | RXF 393 > 100 µM

O=c1[nH]c(=O)n([C@H]2CCCO2)cc1F
inactive: A498 501 µM | SK-MEL-5 845 µM | U-251 957 µM | MCF7 467 µM | LOX IMVI 685 µM | COLO 205 673 µM | SNB-75 560 µM | EKVX 393 µM | NCI-H23 759 µM | Malme-3M 493 µM | NCI-H460 146 µM | A549 446 µM | SF-268 986 µM | SF-539 262 µM | SK-MEL-28 830 µM | HOP-62 547 µM | NCI/ADR-RES 923 µM | M14 740 µM | CCRF-CEM 982 µM | RXF 393 769 µM

O=C(/C=C/c1ccc(-c2ccccc2)cc1)NCc1ccc(C(=O)NCCc2c[nH]c3ccccc23)cc1
inactive: A498 32.8 µM | SK-MEL-5 26 µM | U-251 11.9 µM | MCF7 89.9 µM | LOX IMVI 48.9 µM | COLO 205 > 100 µM | SNB-75 11.2 µM | EKVX 34.2 µM | NCI-H23 22.1 µM | Malme-3M 33.4 µM | NCI-H460 31.7 µM | A549 19.4 µM | SF-268 39.7 µM | SF-539 43.5 µM | SK-MEL-28 39.7 µM | HOP-62 9.14 µM | NCI/ADR-RES 60 µM | M14 80.9 µM | CCRF-CEM 13.9 µM | RXF 393 19.8 µM

Cc1ccc([S+]([O-])c2sccc2C=O)cc1 (stereo not given)
inactive: A498 > 100 µM | SK-MEL-5 29.1 µM | U-251 18.9 µM | MCF7 21.4 µM | LOX IMVI 14.4 µM | COLO 205 41 µM | SNB-75 33.9 µM | EKVX 26.2 µM | NCI-H23 30.8 µM | Malme-3M 23.4 µM | NCI-H460 21.9 µM | A549 > 100 µM | SF-268 28.8 µM | SF-539 21 µM | SK-MEL-28 29.2 µM | HOP-62 31.3 µM | NCI/ADR-RES 26.5 µM | M14 20 µM | CCRF-CEM 20 µM | RXF 393 56.9 µM

COc1cc(OCCN(C)C)c2[nH]c(C(=O)N3CC(CCl)c4ccc(N)cc43)cc2c1 (stereo not given)
active: A498 0.201 µM | SK-MEL-5 0.0342 µM | U-251 0.0432 µM | MCF7 0.0139 µM | LOX IMVI 0.021 µM | COLO 205 0.0395 µM | SNB-75 0.0676 µM | EKVX 0.108 µM | NCI-H23 0.0269 µM | Malme-3M 0.0904 µM | NCI-H460 0.0147 µM | A549 0.0377 µM | SF-268 0.0264 µM | SF-539 0.0748 µM | SK-MEL-28 0.0628 µM | HOP-62 0.0164 µM | NCI/ADR-RES 0.0376 µM | M14 0.0632 µM | CCRF-CEM 0.0199 µM | RXF 393 0.0204 µM

N#CC(C#N)SCc1ccccc1
inactive: A498 > 71.4 µM | SK-MEL-5 11.9 µM | U-251 19.5 µM | MCF7 4.55 µM | LOX IMVI 5.11 µM | COLO 205 15.6 µM | SNB-75 38 µM | EKVX > 96.2 µM | NCI-H23 10.5 µM | Malme-3M 47.8 µM | NCI-H460 14.7 µM | A549 16.6 µM | SF-268 29.4 µM | SF-539 5.19 µM | SK-MEL-28 36.2 µM | HOP-62 15.7 µM | NCI/ADR-RES 6.64 µM | M14 11.5 µM | CCRF-CEM 1.7 µM | RXF 393 26.8 µM

Cc1ccc(S(=O)(=O)NC(CO)C(=O)O)cc1 (stereo not given)
inactive: A498 > 100 µM | SK-MEL-5 > 100 µM | U-251 > 100 µM | MCF7 > 100 µM | LOX IMVI > 100 µM | COLO 205 > 100 µM | SNB-75 > 100 µM | EKVX > 100 µM | NCI-H23 > 100 µM | Malme-3M > 100 µM | NCI-H460 > 100 µM | A549 > 100 µM | SF-268 > 100 µM | SF-539 > 100 µM | SK-MEL-28 > 100 µM | HOP-62 > 100 µM | NCI/ADR-RES > 100 µM | M14 > 100 µM | CCRF-CEM > 100 µM | RXF 393 > 100 µM

COc1ccc(/C=C2/CSCC3=C2N=C(S)NC3c2ccc(OC)c(OC)c2OC)c(OC)c1OC (stereo not given)
active: MCF7 0.0798 µM | SNB-75 0.209 µM
inactive: A498 19 µM | SK-MEL-5 11.1 µM | U-251 7.48 µM | LOX IMVI 15.4 µM | COLO 205 19.9 µM | EKVX 51.3 µM | NCI-H23 18.9 µM | Malme-3M 23.2 µM | NCI-H460 27.6 µM | A549 24.8 µM | SF-268 16.8 µM | SF-539 16.8 µM | SK-MEL-28 18.4 µM | HOP-62 20.1 µM | NCI/ADR-RES 7.43 µM | M14 12.6 µM | CCRF-CEM 3.4 µM | RXF 393 14.4 µM

CCCCCOc1ccc(NC2=C(Cl)C(=O)c3c(O)ccc(O)c3C2=O)cc1
inactive: A498 > 10 µM | SK-MEL-5 5.43 µM | U-251 6.38 µM | MCF7 1.33 µM | LOX IMVI 1.79 µM | COLO 205 2.63 µM | SNB-75 > 10 µM | EKVX > 10 µM | NCI-H23 3.27 µM | Malme-3M 2.49 µM | NCI-H460 4.13 µM | A549 > 10 µM | SF-268 > 10 µM | SF-539 6.52 µM | SK-MEL-28 2.84 µM | HOP-62 5.85 µM | NCI/ADR-RES 6.04 µM | M14 3.03 µM | CCRF-CEM 3.52 µM | RXF 393 4.71 µM

CO/C(=C/C(=O)C(Cl)(Cl)Cl)CC/C(=C\C(=O)C(Cl)(Cl)Cl)OC
inactive: A498 35.3 µM | SK-MEL-5 34.2 µM | U-251 22.8 µM | MCF7 24.2 µM | LOX IMVI 19.6 µM | COLO 205 40.7 µM | SNB-75 40.6 µM | EKVX 20.4 µM | NCI-H23 22.4 µM | Malme-3M 23 µM | NCI-H460 29.1 µM | A549 47.4 µM | SF-268 26.1 µM | SF-539 23.6 µM | SK-MEL-28 30.1 µM | HOP-62 20.8 µM | NCI/ADR-RES 29.5 µM | M14 28.2 µM | CCRF-CEM 24.3 µM | RXF 393 17.5 µM
